The values that follow come from patent US4906468A, “Insulin activity messengers, their antibodies, and thereof” (priority 1986, dated 1990).

One assay relates to pyruvate dehydrogenase. The assay can be described thus: Production of pyruvate dehydrogenase modulating activity in crude extracts of plasma membrane derived supernatants. The format is biochemical.
Assay [1] has as its system phosphatidic acid in BC3 Hl myocytes. Briefly: Phosphatidic acid production, [^3 H]myristic acid labeled myocytes. The format is cell-based, murine. Conditions: insulin, by 5 minutes. The procedure: (§1) Myocytes were incubated for 20 hrs. in serum free DMEM with [9,10^3 H] myristic acid (New England Nuclear), complexed 1:1 to bovine serum albumin. Insulin was added to cells in fresh media for the designated intervals, and reactions were stopped by removal of media and addition of 1 ml chloroform/methanol/IN HCl (200:100:1). 0.6 ml H2 O was added and upper aqueous phases were discarded following centrifugation at 500×g for 5 minutes. The lower, organic phases were dried under N2 and resuspended in 1 ml diethyl ether followed by addition of 1 […]. The upper ether phase was aspirated and the lower phase reextracted with 1 ml diethyl ether. The combined ether phases, containing diacylglycerol, were dried under N2, resuspended in chloroform and spotted on silica gel G plates which were preactivated at 60° C. for 1 hr. Plates were twice developed in petroleum ether/diethyl ether/glacia acetic acid (70:30:2). […] Lipids were scraped and radioactivity determined in a liquid scintillation counter.
(§2) The phosphodiesteratic cleavage of a phospolipid by insulin should also be reflected by increased production of diacylglycerol, which could serve as substrate for a diglyceride kinase, producing phosphatidic acid. Myocytes were preincubated with [^3 H]myristic acid and both diacylglycerol and phosphatidic acid labeling were evaluated by thin layer chromatography (FIG. 6).

A further assay has as its system polyphosphoinositides. Conditions: cited from earlier work.
The test system of the next assay is BC3 Hl cells. Briefly: Incorporation of radiolabel into water soluble products (SAX HPLC Peaks I and II), insulin treated cells. Conditions: 10 nM insulin. The format is cell-based, murine. The procedure: BC3 Hl cells were cultured at 37° C. in Dubelco's Minimal Essential Medium in the presence of 20% NU serum (Collaborative Research) on collagen coated 10 mm miniwells. Cells (1×10^6 /well) were preincubated with 10 μCi A) [2,6^3 H]myoinositol or B) [1,6^3 H]glucosamine (New England Nuclear) for 20 hours in the presence of 20% Nu Serum. Insulin was added to cells in monolayer in serum free media at a final concentration of 10 nM. Reactions were terminated by removal of media and addition of 1 ml chloroform/methanol/IN HCl (200:100:1), followed by addition of 0.5 ml 10 mM formic acid. Organic and aqueous phases were separated by centrifugation at 500×g for 5 min.
The water soluble labeled products were purified by a modification of a previously described protocol for purification of cAMP phosphodiesterase (PDE) modulators. The aqueous phases were chromatographed on DEAE-Cellulose, eluted with 0.25 TEA-formate, pH 3.75. This fraction was eluted through a C-18 reversed phase sepak in the same buffer. Following lyophilization, the solution was eluted through Dowex 50WX-4 in 50 mM TEA-formate. pH 3.0. […] One ml fractions were counted. The two peaks of insulin stimulated radioactivity coeluted with similarly purified, myocyte derived PDE modulating activities. […]

Assay [2] relates to low Km cAMP phosphodiesterase (PDE) from rat adipocyte particulate fraction. The assay can be described thus: Generation of PDE messenger from liver membranes; extracts assayed for modulation of cAMP phosphodiesterase. The assay is classed as biochemical. The procedure:
These were generated from bovine liver particulate fractions by a modification of previously described methods. Particulate fraction was prepared from 100 g of bovine liver, and suspended in […] ammonium bicarbonate, pH 7.4. (Buffer A) at a final concentration of 2-4 mg protein/ml. This solution was incubated with 10 mM for 10 min at 37° C., acidified to pH 4.0 with formic acid and sedimented at 45,000 g for 20 min. An equal volume of chloroform/methanol (2:1) was added to the supernatant, and the upper phase was aspirated and methanol was evaporated.
In the tests the results of which are tabulated above, liver membranes were treated as indicated for 10 min at 37° C., centrifuged and supernatants were extracted and purified up to and including the Dowex 50WX-4 step as described earlier herein under "Experimental Procedures". Partially purified extracts were assayed for ability to modulate cAMP phosphodiesterase. Basal activity was 56.2 pmoles/mg protein^-1 -min^-1.

Assay [3] relates to diacylglycerol in BC3 Hl myocytes. Briefly: Diacylglycerol production, [^3 H]myristic acid labeled myocytes. The format is cell-based, murine. Conditions: insulin. The procedure: as §1, §2
The test system of assay [4] is glycolipid precursor in BC3 Hl cells. The assay can be described thus: Radiolabel in glycolipid precursor (TLC), insulin treated cells. The assay is classed as cell-based, murine. The procedure:
(A) [^3 H]inositol and (B) [^3 H]glucosamine labeled cells were treated with or without 10 nM insulin. Following extraction and phase separation, the organic phase were dried under N2, resuspended in chloroform/methanol/H2 O (9:7:2); and spotted on oxalate impregnated Silica gel G plates. These were twice developed in chloroform/acetone/methanol/glacial acetic acid/H2 O (10:4:2:2:1). One cm regions were scraped and radioactivity determined by scintillation counting. Phosphoinositides were identified by iodine staining of standards.
Cells prelabeled with [^3 H]inositol were treated with 10 nM insulin for the designated intervals. Cells were extracted and phase separated as detailed in FIG. 7. Aqueous phases were chromatographed up to and including the SAX HPLC step (upper panel). Results reflect counts from a combination of Peaks I and II. The ratio of counts in these peaks were unchanged over the time course. The precursor residing in the organic phases was identified by the peak on TLC with an Rf =0.22, corresponding to the species depleted by PI-PLC (FIG. 10).

Take “Insulin: Monocomponent bovine insulin from Wellcome Laboratores”: the “production of pyruvate dehydrogenase modulating activity” value with pyruvate dehydrogenase is given as “enhanced”. Besides, the “increase in levels of [^3 H]myristate phosphatidic acid” value in assay [1] stood at 2 fold. Moreover, in the assay on polyphosphoinositides, the hydrolysis of polyphosphoinositides result is given as “does not stimulate hydrolysis of polyphosphoinositides”. For the same substance, the “incorporation of [^3 H]inositol into two peaks (I and II)” value in the assay on BC3 Hl cells was “increased the incorporation of [^3 H]inositol into two peaks”. Moreover, the “percent of maximal effect on production of [^3 H]inositol containing products” value in the assay on BC3 Hl cells (30 sec, Peaks I and II combined) is recorded as “Seventy”. Moreover, in assay [2] (after partial purification), the “stimulation of PDE modulating activity / increase in production of messengers from membranes” value is given as 4 fold. Further, in assay [2] (extracts of liver membranes treated 10 min at 37° C., 1.0 nM insulin, 1.0 μg/ml PI-PLC, basal 56.2), the “PDE Activity” value was determined as 138.0 pmol mg protein^-1 min^-1. Moreover, in assay [3] (by 5-10 minutes), the “maximal increase in labeled diacylglycerol over basal” value turned out to be 50%. Also, the labeled diacylglycerol level entry in assay [3] (by 2 minutes) is “near basal levels”. In addition, the “time course of [^3 H]inositol incorporation into the precursor” value in assay [4] (10 nM insulin) is “biphasic”. In assay [4] (10 nM insulin, 30 sec), the “decrease in [^3 H]inositol counts in precursor” value is recorded as 20%. The “increase in [^3 H]inositol radioactivity in precursor over control levels” value in assay [4] (10 nM insulin, after 30 sec) is recorded as 60%. In assay [4] (insulin dependent), the “time of hydrolysis of the putative glycolipid precursor and appearance of the products” value is “less than 1 min”. Besides, in assay [4] (insulin, 10 min), the “increase in incorporation of [^3 H]glucosamine in precursor peak” value is recorded as “approximately 40%”, the “increase in incorporation of [^3 H]inositol in precursor peak” value is listed as “approximately 40%” and the “labeling of other lipids” value is recorded as “no significant change”. Also, the radioactivity in precursor entry in assay [4] (intact cells) is on record as “rapidly diminished”.
